Test results published in PMC9047515 (Biochemistry, 2022).
Read-outs that look alike come from different tables or passages of the source. Blank lines part the entries; values can stand above or below the molecule they belong to.

Experiments:
Assay in all cases: stopped-flow absorption titration
Assay type in all cases: binding
BesC [1] = target: T1, BesC (Streptantibioticus cattleyicolor, UniProt F8JJ25)
BesC [2] = target: T1, BesC; remark: listed apart in the source
BesC [3] = target: T1, BesC; remark: listed apart in the source

T1 sequence (F8JJ25 whole entry): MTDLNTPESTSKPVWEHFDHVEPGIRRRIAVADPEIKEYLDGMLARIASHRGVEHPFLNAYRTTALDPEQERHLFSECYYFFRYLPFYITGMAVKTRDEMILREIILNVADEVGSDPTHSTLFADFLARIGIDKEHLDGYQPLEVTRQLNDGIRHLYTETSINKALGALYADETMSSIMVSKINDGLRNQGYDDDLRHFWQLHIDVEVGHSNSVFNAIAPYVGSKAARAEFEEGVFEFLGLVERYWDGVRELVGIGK

Kd (BesC [1]): < 30 µM
Structure (SMILES): NCCSC[C@H](N)C(=O)O [4-thia-L-Lys, S-(2-aminoethyl)-L-cysteine]

Structure (SMILES): N[C@@H](CCCCO)C(=O)O [6-OH-L-Nle]
Kd (BesC [2]): 10 ± 1 mM

Structure (SMILES): NCCCC[C@H](N)C(=O)O [L-Lys]
Kd (BesC [3]): 300 ± 100 µM
